US20260256794A1, “Oral Dynamine Formulations and Methods Therefor” (Ortho-Nutra, LLC, priority 2023, published 2026)
“And” between values parts separate entries of the source, which are not always exact repeats. Equal entries are not always repeated.

Tests used:
Format in all cases: in vivo, human
subjects [1] = assay: VAS-Ability to tolerate stress; design: VAS-Ability to tolerate stress rating, Mean / VAS-Ability to tolerate stress changes from baseline, Mean Difference ± SE / VAS-Ability to tolerate stress area under the curve, Mean Difference ± SE / VAS-Ability to tolerate stress area under the curve, Mean: scale not given here
Protocol: (§1) The inventors have discovered various compositions and methods of improving various indices of neurological and neuroenergetic functions by administering 100 mg (once daily) dosages of DYNAMINE™ (dosage between 1.0 and 1.4 mg/kg) as described in the following:
(§2) All neuroenergetic tests as listed below were performed and data were collected after 0 and 4 days of assigned supplements (with acute effects also measured at day 4 over 180 minutes):
(§3) All VAS Measurement (Energy, Sustained Energy, Mental Stamina, Ability to Focus, Ability to Concentrate, Motivation to Accomplish Difficult Tasks, Drive, Vigor, Level of Positive Outlook, Mood, Feelings of Well-Being, Tolerate Stress); Day 0: Two tests were completed. The average of both scores was computed and this value was used in all statistical analysis. Day 4 (0 minutes after ingesting dose #4): Two tests were completed. The average of both scores was computed and this value was used in all statistical analysis. Day 4 (60, 120, and 180 minutes after ingesting dose #4): One test was completed at each time point.
(§4) Neuroenergic parameters are inherently subjective, nevertheless significant in human behavior and well-being. To allow for a standardization among different subjects, the following experiments were performed using a visual analog scale using anchor statements (lowest possible/highest possible) in which subjects were asked to rate their subjective experience with respect to the specific neuroenergic parameters tested.
VAS-Ability to tolerate stress: In this subjective test, subjects were asked to rate their personal level of energy on a VAS scale using the prompt of “My ability to tolerate stress right now is . . . ” (with rating lowest possible to highest possible)”. Results were collected as noted above and Table 37 provides exemplary results for Day 0 versus Day 4 ratings, whereas Table 38 provides exemplary acute results measured at Day 4 over a duration of 180 minutes.

subjects [2] = assay: VAS-Mental Stamina; design: VAS-Mental Stamina rating, Mean / VAS-Mental Stamina changes from baseline, Mean Difference ± SE / VAS-Mental Stamina area under the curve, Mean Difference ± SE / VAS-Mental Stamina area under the curve, Mean: scale not given here
Protocol: as §1, §2, §3, §4
VAS-Mental Stamina: In this subjective test, subjects were asked to rate their personal level of energy on a VAS scale using the prompt of “My level of mental stamina right now is . . . ” (with rating lowest possible to highest possible)”. Results were collected as noted above and Table 10 provides exemplary results for Day 0 versus Day 4 ratings, whereas Table 11 provides exemplary acute results measured at Day 4 over a duration of 180 minutes.

subjects [3] = assay: Stroop-Average Time; conditions: unit assumed
Protocol: as §1, §2
Stroop Color Matching Test (Total Score, Accuracy %, Average Score): Day 0: Two blocks of three tests were completed. Each block of three tests was separated by 10 minutes. The median of each block was taken and then those two scores were averaged. This value was used in all statistical analysis. Day 4: Three tests were completed at four time points: after 0, 60, 120, and 180 minutes of taking dose #4. The median of the three tests at each time point was used in all statistical analysis.
The Stroop Color and Word Test (SCWT, or Stroop test) is a neuropsychological test extensively used to assess the ability to inhibit cognitive interference that occurs when the processing of a specific stimulus feature impedes the simultaneous processing of a second stimulus attribute, well-known as the Stroop effect (see e.g., Front Psychol. 2017; 8:557). Here, subjects were required to read three different tables as fast as possible. Two of them represent the “congruous condition” in which participants are required to read names of colors (‘color-words’) printed in black ink (W) and name different color patches (C). However, in the third table, the color-word (CW) condition, color-words are printed in an inconsistent color ink (e.g., the word “red” is printed in green ink). In this incongruent condition, participants are required to name the color of the ink instead of reading the word. In other words, the participants are required to perform a less automated task (i.e., naming ink color) while inhibiting the interference arising from a more automated task (i.e., reading the word). This difficulty in inhibiting the more automated process is called the Stroop effect. The Stroop test is predominantly used to measure the ability to inhibit cognitive interference. However, some sources also report its application to measure other cognitive functions such as attention, processing speed, cognitive flexibility, and working memory.
Stroop-Average Time: The results for this test were based on an average time score comparing performance between Day 0 and Day 4, with Day 4 including tests over a duration of 180 minutes. Results were collected as noted above and Table 45 provides exemplary results for Day 0 versus Day 4 ratings, whereas Table 46 provides exemplary acute results measured at Day 4 over a duration of 180 minutes.

[4] = 100 mg once daily, Day 4, 0-180 min
[5] = 100 mg once daily, Day 4, 0-180 min, vs Group A (placebo)
[6] = 100 mg once daily, Day 4, 0 min after dose #4
[7] = 100 mg once daily, Day 4, 60 min-0 min, vs Group A (placebo)
[8] = 100 mg once daily, Day 4, 60 min after dose #4
[9] = 100 mg once daily, Day 4, 120 min-0 min, vs Group A (placebo)
[10] = 100 mg once daily, Day 4, 120 min after dose #4
[11] = 100 mg once daily, Day 4, 180 min-0 min, vs Group A (placebo)
[12] = 100 mg once daily, Day 4, 180 min after dose #4

Question: Which results are given for `COc1nc2c(c(=O)n1C)n(C)c(=O)n2C` [methylliberine, 2-methoxy-1,7,9-trimethylpurine-6,8-dione]?
Answer: VAS-Ability to tolerate stress area under the curve, Mean (subjects [1]; [4]): 1075; VAS-Ability to tolerate stress area under the curve, Mean Difference ± SE (subjects [1]; [5]): 45.5 ± 45.6; VAS-Ability to tolerate stress area under the curve, effect size d (subjects [1]; [5]): −0.13; VAS-Ability to tolerate stress rating, Mean (subjects [1]; [6]): 5.7; VAS-Ability to tolerate stress changes from baseline, Mean Difference ± SE (subjects [1]; [7]): 0.17 ± 0.18; VAS-Ability to tolerate stress changes from baseline, effect size d (subjects [1]; [7]): 0.21; VAS-Ability to tolerate stress rating, Mean (subjects [1]; [8]): 6.2; VAS-Ability to tolerate stress changes from baseline, Mean Difference ± SE (subjects [1]; [9]): 0.28 ± 1.42; VAS-Ability to tolerate stress changes from baseline, effect size d (subjects [1]; [9]): 0.27; VAS-Ability to tolerate stress rating, Mean (subjects [1]; [10]): 6.4; VAS-Ability to tolerate stress changes from baseline, Mean Difference ± SE (subjects [1]; [11]): 0.67 ± 0.30; VAS-Ability to tolerate stress changes from baseline, effect size d (subjects [1]; [11]): 0.52 and 0.54; VAS-Ability to tolerate stress rating, Mean (subjects [1]; [12]): 6.4; VAS-Ability to tolerate stress rating, Mean (subjects [1]; Day 0 (before supplementation)): 6.1; VAS-Mental Stamina area under the curve, Mean (subjects [2]; [4]): 1133; VAS-Mental Stamina area under the curve, Mean Difference ± SE (subjects [2]; [5]): 59.2 ± 46.2; VAS-Mental Stamina area under the curve, effect size d (subjects [2]; [5]): 0.18; VAS-Mental Stamina rating, Mean (subjects [2]; [6]): 6.0; VAS-Mental Stamina changes from baseline, Mean Difference ± SE (subjects [2]; [7]): −0.12 ± 0.22; VAS-Mental Stamina changes from baseline, effect size d (subjects [2]; [7]): −0.15; VAS-Mental Stamina rating, Mean (subjects [2]; [8]): 6.3; VAS-Mental Stamina changes from baseline, Mean Difference ± SE (subjects [2]; [9]): −0.21 ± 0.28; VAS-Mental Stamina changes from baseline, effect size d (subjects [2]; [9]): −0.21; VAS-Mental Stamina rating, Mean (subjects [2]; [10]): 6.3; VAS-Mental Stamina changes from baseline, Mean Difference ± SE (subjects [2]; [11]): 0.16 ± 0.24; VAS-Mental Stamina changes from baseline, effect size d (subjects [2]; [11]): 0.15; VAS-Mental Stamina rating, Mean (subjects [2]; [12]): 6.6; VAS-Mental Stamina rating, Mean (subjects [2]; Day 0 (before supplementation)): 5.7; Stroop average time, Mean (subjects [3]; [6]): 0.961 s; Stroop average time, Mean (subjects [3]; [8]): 0.929 s; Stroop average time, Mean (subjects [3]; [10]): 0.921 s; Stroop average time, Mean (subjects [3]; [12]): 0.908 s; Stroop average time, Mean (subjects [3]; Day 0 (before supplementation)): 0.983 s
